Laboratory results: US9593149B2, “Amylin and calcitonin receptor agonist” (Novo Nordisk A/S, priority 2014, dated 2017)
≈ marks a conversion by molar mass, not a printed value. Numbered stars: 1 amine (or outer) side, 2 acyl side, 3 side chain; on linkers, the order of the positions; unused ones are H or OH. Peptide text beside a SMILES is read from it. * marks the point of attachment. C20 diacid = O=C(O)CCCCCCCCCCCCCCCCCCC(=O)*; C18 diacid = O=C(O)CCCCCCCCCCCCCCCCC(=O)*; γGlu = O=C(O)[C@H](CCC(=O)[*:2])N[*:1]

Assay: Assay (IV) determination of solubility
Type: physicochemical
Description: Assay (IV)—Determination of Solubility
The mimylin peptide was dissolved in water at ˜500 nmol/ml and mixed 1:1 with a series of buffers (100 mM glycylglycine pH 3.0, 100 mM glycylglycine pH 4.0, 100 mM glycylglycine pH 5.0, 100 mM bistrispropane pH 6.0, 100 mM bistrispropane pH 6.5, 100 mM bistrispropane pH 7.0, 100 mM bistrispropane pH 7.5, 100 mM bistrispropane pH 8.0).

Row | Solubility (pH 3.0) | Solubility (pH 4.0) | solubility at 18 h (pH 5.0) | Solubility (pH 6.0) | Solubility (pH 6.5) | Solubility (pH 7.0) | Solubility (pH 7.5) | Solubility (pH 8.0) | Solubility (pH 5.0) | solubility at 18 h (pH 4.0) | SMILES
1 | ≧200 μM | ≧200 μM | 169 µM (≈ 638 µg/mL) | ≧200 μM | ≧200 μM | ≧200 μM | ≧200 μM | ≧200 μM |  |  | CC(C)C[C@H](NC(=O)[C@H](CCCNC(=N)N)NC(=O)CNC(=O)[C@H](CC(C)C)NC(=O)[C@@H](NC(=O)[C@H](C)NC(=O)[C@@H](NC(=O)[C@H](CO)NC(=O)[C@H](CC(C)C)NC(=O)[C@H](CCC(=O)O)NC(=O)[C@H](CO)NC(=O)[C@H](C)NC(=O)CC[C@H](NC(=O)CCCCCCCCCCCCCCCCCCC(=O)O)C(=O)O)[C@@H](C)O)[C@@H](C)O)C(=O)N[C@@H](CO)C(=O)N[C@@H](C)C(=O)N[C@@H](CCC(=O)O)C(=O)N[C@@H](CC(C)C)C(=O)N[C@@H](Cc1cnc[nH]1)C(=O)N[C@@H](CCC(=O)O)C(=O)N[C@@H](CC(C)C)C(=O)N[C@@H](CO)C(=O)N[C@H](C(=O)N[C@@H](Cc1ccc(O)cc1)C(=O)N1CCC[C@H]1C(=O)N[C@@H](CCCNC(=N)N)C(=O)N[C@H](C(=O)N[C@@H](CCC(=O)O)C(=O)N[C@H](C(=O)NCC(=O)N[C@@H](CO)C(=O)NCC(=O)N[C@@H](CO)C(=O)N1CCC[C@H]1C(N)=O)[C@@H](C)O)[C@@H](C)O)[C@@H](C)O [compound 92, [N-terminal(C20 diacid-gGlu), des1, 9T, 21S, 23Y, 30S, 31G]mimylin] ({C20 diacid-γGlu}-ASELSTATLGRLSAELHELSTYPRTETGSGSP-NH2)
2 | ≧200 μM | ≧200 μM | 40 µM (≈ 152 µg/mL) | ≧200 μM | ≧200 μM | ≧200 μM | ≧200 μM | ≧200 μM |  |  | CC(C)C[C@H](NC(=O)[C@H](C)NC(=O)[C@H](C)NC(=O)[C@@H](NC(=O)[C@H](CO)NC(=O)[C@H](CC(C)C)NC(=O)[C@H](CCC(=O)O)NC(=O)[C@H](CO)NC(=O)[C@H](C)NC(=O)CC[C@H](NC(=O)CCCCCCCCCCCCCCCCCCC(=O)O)C(=O)O)[C@@H](C)O)C(=O)NCC(=O)N[C@@H](CCCNC(=N)N)C(=O)N[C@@H](CC(C)C)C(=O)N[C@@H](CO)C(=O)N[C@@H](C)C(=O)N[C@@H](CCC(=O)O)C(=O)N[C@@H](CC(C)C)C(=O)N[C@@H](Cc1cnc[nH]1)C(=O)N[C@@H](CCC(=O)O)C(=O)N[C@@H](CC(C)C)C(=O)N[C@@H](CO)C(=O)N[C@H](C(=O)N[C@@H](Cc1ccc(O)cc1)C(=O)N1CCC[C@H]1C(=O)N[C@@H](CCCNC(=N)N)C(=O)N[C@H](C(=O)N[C@@H](CCC(=O)O)C(=O)N[C@H](C(=O)NCC(=O)N[C@@H](CO)C(=O)NCC(=O)N[C@@H](CO)C(=O)N[C@@H](Cc1ccc(O)cc1)C(N)=O)[C@@H](C)O)[C@@H](C)O)[C@@H](C)O [compound 97, [N-terminal(C20 diacid-gGlu), des1, 21S, 23Y, 30S, 31G, 33Y]mimylin] ({C20 diacid-γGlu}-ASELSTAALGRLSAELHELSTYPRTETGSGSY-NH2)
3 | ≧200 μM | ≧200 μM |  | ≧200 μM | ≧200 μM | ≧200 μM | ≧200 μM | ≧200 μM | ≧200 μM |  | CC(C)C[C@H](NC(=O)CNC(=O)[C@H](CO)NC(=O)[C@H](C)NC(=O)CC[C@H](NC(=O)CCCCCCCCCCCCCCCCCCC(=O)O)C(=O)O)C(=O)N[C@@H](CO)C(=O)N[C@H](C(=O)N[C@@H](C)C(=O)N[C@H](C(=O)N[C@@H](CC(C)C)C(=O)NCC(=O)N[C@@H](CCCNC(=N)N)C(=O)N[C@@H](CC(C)C)C(=O)N[C@@H](CO)C(=O)N[C@@H](C)C(=O)N[C@@H](CCC(=O)O)C(=O)N[C@@H](CC(C)C)C(=O)N[C@@H](Cc1cnc[nH]1)C(=O)N[C@@H](CCC(=O)O)C(=O)N[C@@H](CC(C)C)C(=O)N[C@@H](C)C(=O)N[C@H](C(=O)N[C@@H](Cc1ccc(O)cc1)C(=O)N1CCC[C@H]1C(=O)N[C@@H](CCCNC(=N)N)C(=O)N[C@H](C(=O)N[C@@H](CCC(=O)O)C(=O)N[C@H](C(=O)NCC(=O)N[C@@H](CO)C(=O)NCC(=O)N[C@H](C(=O)N1CCC[C@H]1C(N)=O)[C@@H](C)O)[C@@H](C)O)[C@@H](C)O)[C@@H](C)O)C(C)C)[C@@H](C)O [compound 98, [N-terminal(C20 diacid-gGlu), des1, 4G, 9V, 23Y, 30S, 31G, 32T]mimylin] ({C20 diacid-γGlu}-ASGLSTAVLGRLSAELHELATYPRTETGSGTP-NH2)

The next lines start with the molecule.

Row | SMILES | Solubility (pH 3.0) | Solubility (pH 4.0) | solubility at 18 h (pH 5.0) | Solubility (pH 6.0) | Solubility (pH 6.5) | Solubility (pH 7.0) | Solubility (pH 7.5) | Solubility (pH 8.0) | Solubility (pH 5.0) | solubility at 18 h (pH 4.0)
4 | CC(C)C[C@H](NC(=O)[C@H](C)NC(=O)[C@H](C)NC(=O)[C@@H](NC(=O)[C@H](CO)NC(=O)[C@H](CC(C)C)NC(=O)[C@H](CCC(=O)O)NC(=O)[C@H](CO)NC(=O)[C@H](C)NC(=O)CC[C@H](NC(=O)CCCCCCCCCCCCCCCCCCC(=O)O)C(=O)O)[C@@H](C)O)C(=O)NCC(=O)N[C@@H](Cc1cnc[nH]1)C(=O)N[C@@H](CC(C)C)C(=O)N[C@@H](CO)C(=O)N[C@@H](C)C(=O)N[C@@H](CCC(=O)O)C(=O)N[C@@H](CC(C)C)C(=O)N[C@@H](Cc1cnc[nH]1)C(=O)N[C@@H](CCC(=O)O)C(=O)N[C@@H](CC(C)C)C(=O)N[C@@H](C)C(=O)N[C@H](C(=O)N[C@@H](CC(C)C)C(=O)N1CCC[C@H]1C(=O)N[C@@H](Cc1cnc[nH]1)C(=O)N[C@H](C(=O)N[C@@H](CCC(=O)O)C(=O)N[C@H](C(=O)NCC(=O)N[C@H](C(=O)NCC(=O)N[C@H](C(=O)N1CCC[C@H]1C(N)=O)[C@@H](C)O)[C@@H](C)O)[C@@H](C)O)[C@@H](C)O)[C@@H](C)O [compound 93, [N-terminal(C20 diacid-gGlu), des1, 12H, 25H, 30T, 31G, 32T]mimylin] ({C20 diacid-γGlu}-ASELSTAALGHLSAELHELATLPHTETGTGTP-NH2) | ≧200 μM | ≧200 μM |  | ≧200 μM | ≧200 μM | ≧200 μM | ≧200 μM | ≧200 μM | ≧200 μM | 
5 | CC(C)C[C@H](NC(=O)[C@H](CCC(=O)O)NC(=O)[C@H](Cc1cnc[nH]1)NC(=O)[C@H](CC(C)C)NC(=O)[C@H](CCC(=O)O)NC(=O)[C@H](C)NC(=O)[C@H](CO)NC(=O)[C@H](CC(C)C)NC(=O)[C@H](CCCNC(=N)N)NC(=O)CNC(=O)[C@H](CC(C)C)NC(=O)[C@@H](NC(=O)[C@H](C)NC(=O)[C@@H](NC(=O)[C@@H](NC(=O)[C@H](CC(C)C)NC(=O)[C@H](CCC(=O)O)NC(=O)[C@H](CO)NC(=O)[C@H](C)NC(=O)CC[C@H](NC(=O)CCCCCCCCCCCCCCCCC(=O)O)C(=O)O)[C@@H](C)O)[C@@H](C)O)C(C)C)C(=O)N[C@@H](C)C(=O)N[C@H](C(=O)N[C@@H](CC(C)C)C(=O)N1CCC[C@H]1C(=O)N[C@@H](CCCNC(=N)N)C(=O)N[C@H](C(=O)N[C@@H](CCC(=O)O)C(=O)N[C@H](C(=O)NCC(=O)N[C@H](C(=O)NCC(=O)N[C@H](C(=O)N1CCC[C@H]1C(N)=O)[C@@H](C)O)[C@@H](C)O)[C@@H](C)O)[C@@H](C)O)[C@@H](C)O [compound 95, [N-terminal(C18 diacid-gGlu), des1, 6T, 9V, 30T, 31G, 32T]mimylin] ({C18 diacid-γGlu}-ASELTTAVLGRLSAELHELATLPRTETGTGTP-NH2) | ≧200 μM | ≧200 μM |  | ≧200 μM | ≧200 μM | ≧200 μM | ≧200 μM | ≧200 μM | ≧200 μM | 
6 | CC(C)C[C@H](NC(=O)[C@H](CCC(=O)O)NC(=O)[C@H](Cc1cnc[nH]1)NC(=O)[C@H](CC(C)C)NC(=O)[C@H](CCC(=O)O)NC(=O)[C@H](C)NC(=O)[C@H](CO)NC(=O)[C@H](CC(C)C)NC(=O)[C@H](CCCNC(=N)N)NC(=O)CNC(=O)[C@@H](NC(=O)[C@@H](NC(=O)[C@H](C)NC(=O)[C@@H](NC(=O)[C@H](CO)NC(=O)[C@@H](NC(=O)[C@H](CCC(=O)O)NC(=O)[C@H](CO)NC(=O)[C@H](C)NC(=O)CC[C@H](NC(=O)CCCCCCCCCCCCCCCCC(=O)O)C(=O)O)C(C)C)[C@@H](C)O)C(C)C)C(C)C)C(=O)N[C@@H](C)C(=O)N[C@H](C(=O)N[C@@H](CC(C)C)C(=O)N1CCC[C@H]1C(=O)N[C@@H](CCCNC(=N)N)C(=O)N[C@H](C(=O)N[C@@H](CCC(=O)O)C(=O)N[C@H](C(=O)NCC(=O)N[C@@H](CO)C(=O)NCC(=O)N[C@@H](CO)C(=O)N1CCC[C@H]1C(N)=O)[C@@H](C)O)[C@@H](C)O)[C@@H](C)O [compound 96, [N-terminal(C18 diacid-gGlu), des1, 5V, 9V, 10V, 30S, 31G]mimylin] ({C18 diacid-γGlu}-ASEVSTAVVGRLSAELHELATLPRTETGSGSP-NH2) | ≧200 μM |  | 45 µM (≈ 164 µg/mL) | ≧200 μM | ≧200 μM | ≧200 μM | ≧200 μM | ≧200 μM |  | 177 µM (≈ 646 µg/mL)
